Assay: ABA content in fifth instar larvae of colonies fed ABA syrup
Assay type: in vivo, honey bees
Conditions: 10 μM ABA in sucrose syrup (2:1); fifth instar larvae (L5), two months after starting treatment
Description: ABA was added to sucrose syrup (2:1, sucrose:water) to achieve a concentration of 10 μM ABA. Two groups of small colonies of honey bees were used to test if the compound was reaching the bee larvae. One group of colonies was exposed to the solution by way of adding the solution to feed the bees in the beehive, while the other was not. In order to corroborate that the ABA supplemented in the syrup actually reached the larvae, the ABA content was measured in fifth instar larvae (L5) two months after starting treatment.

Question: Which “concentration of ABA in larvae compared to the control colony” value does the source give for `CC1=CC(=O)CC(C)(C)[C@@]1(O)/C=C/C(C)=C\C(=O)O` [ABA, (2Z,4E)-5-[(1S)-1-hydroxy-2,6,6-trimethyl-4-oxocyclohex-2-en-1-yl]-3-methylpenta-2,4-dienoic acid] here?
Answer: Its value is 28 x.

Reference: US20200360318A1, “COMPOSITIONS AND METHODS FOR INCREASING THE POLLINATION PERFORMANCE OF BEES” (Beeflow Corporation, priority 2019, published 2020)
